Values quoted from earlier work, collected in patent US20120040927A1, “MEDICINAL ANTIFUNGAL AND STEROID CREAM INCORPORATING A BIOPOLYMER AND A PROCESS TO MAKE IT” (APEX LABORATORIES PRIVATE LIMITED, priority 2009, published 2012).
Where two headings read alike, the source gives them in different places.

Experiments:
[1] = not given; remark: listed apart in the source
[2] = not given; remark: listed apart in the source
[3] = system: Trichophyton rubrum, Trichophyton mentagrophytes, Epidermophyton floccosum, Microsporum canis and Candida species including Candida albicans

Solubility in alcohol and in chloroform (alcohol, chloroform)	Solubility in water	Absorption ([1]; humans, oral administration)	Absorption ([1]; topical and vaginal administration)	Protein binding [2]	Solubility in ether (ether)	Solubility in polyethylene glycol 400, ethanol and chloroform (polyethylene glycol 400, ethanol, chloroform)	Compound	In vitro antifungal activity against isolates [3]
slightly soluble	insoluble						CC(=O)OCC(=O)[C@@]1(O)CC[C@H]2[C@@H]3CCC4=CC(=O)CC[C@]4(C)[C@H]3[C@@H](O)C[C@@]21C [Hydrocortisone Acetate]	
	practically insoluble	well absorbed	minimally absorbed	about 90%	sparingly soluble	very soluble	Clc1ccccc1C(c1ccccc1)(c1ccccc1)n1ccnc1 [Clotrimazole, 1-(o-Chloro-α, α-diphenylbenzyl)imidazole]	fungistatic and fungicidal activity
